Source: paper PMC8372184 (Synlett : accounts and rapid communications in synthetic …, 2021)

Tests used:
GetI = target: T1, GetI (Streptomyces sp. L-49973, UniProt E0WFM2); experiment: preparative-scale 4-hydroxylation; assay type: cell-based; conditions: alpha-ketoglutarate, Fe(II)
T1 sequence (E0WFM2 1-345): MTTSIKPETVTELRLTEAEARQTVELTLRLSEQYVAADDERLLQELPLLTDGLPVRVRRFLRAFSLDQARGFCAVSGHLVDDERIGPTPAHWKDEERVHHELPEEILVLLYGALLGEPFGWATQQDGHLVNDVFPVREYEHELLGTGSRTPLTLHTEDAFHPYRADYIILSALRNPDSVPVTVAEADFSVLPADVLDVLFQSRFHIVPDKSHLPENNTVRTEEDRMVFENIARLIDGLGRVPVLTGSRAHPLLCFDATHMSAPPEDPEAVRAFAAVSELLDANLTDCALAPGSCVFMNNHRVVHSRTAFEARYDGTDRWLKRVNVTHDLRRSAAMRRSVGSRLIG

GetF [1] = target: T2, GetF (Streptomyces sp. L-49973, UniProt E0WFM0); experiment: preparative-scale hydroxylation; assay type: cell-based; conditions: alpha-ketoglutarate, Fe(II)
T2 sequence (E0WFM0 1-363): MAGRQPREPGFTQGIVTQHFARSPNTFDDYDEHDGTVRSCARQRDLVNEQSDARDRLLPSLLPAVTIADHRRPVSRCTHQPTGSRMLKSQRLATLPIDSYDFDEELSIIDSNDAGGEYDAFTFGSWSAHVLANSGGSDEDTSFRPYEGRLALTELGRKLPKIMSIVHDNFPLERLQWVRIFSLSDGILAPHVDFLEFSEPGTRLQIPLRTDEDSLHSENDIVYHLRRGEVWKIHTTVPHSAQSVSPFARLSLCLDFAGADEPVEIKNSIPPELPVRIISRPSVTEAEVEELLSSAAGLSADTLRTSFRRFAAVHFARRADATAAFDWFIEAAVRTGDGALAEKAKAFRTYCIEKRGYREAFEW

GriE = target: T3, GriE (Streptomyces muensis, UniProt A0A0E3URV8); experiment: LCMS of C5 hydroxylation; assay type: biochemical; conditions: alpha-ketoglutarate, Fe(II), ascorbate
T3 sequence (A0A0E3URV8 1-270): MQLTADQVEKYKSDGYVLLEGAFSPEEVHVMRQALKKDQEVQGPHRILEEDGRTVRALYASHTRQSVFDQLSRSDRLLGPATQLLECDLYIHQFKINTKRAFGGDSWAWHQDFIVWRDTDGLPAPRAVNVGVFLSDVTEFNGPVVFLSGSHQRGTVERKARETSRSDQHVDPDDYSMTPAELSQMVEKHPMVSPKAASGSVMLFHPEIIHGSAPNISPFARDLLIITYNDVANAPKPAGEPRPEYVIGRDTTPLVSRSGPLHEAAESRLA

KDO1 = target: T4, KDO1 (Catenulispora acidiphila, UniProt C7QJ42); experiment: gram-scale 3-hydroxylation in E. coli lysate; assay type: biochemical; conditions: alpha-ketoglutarate, Fe(II)
T4 sequence (C7QJ42 1-358): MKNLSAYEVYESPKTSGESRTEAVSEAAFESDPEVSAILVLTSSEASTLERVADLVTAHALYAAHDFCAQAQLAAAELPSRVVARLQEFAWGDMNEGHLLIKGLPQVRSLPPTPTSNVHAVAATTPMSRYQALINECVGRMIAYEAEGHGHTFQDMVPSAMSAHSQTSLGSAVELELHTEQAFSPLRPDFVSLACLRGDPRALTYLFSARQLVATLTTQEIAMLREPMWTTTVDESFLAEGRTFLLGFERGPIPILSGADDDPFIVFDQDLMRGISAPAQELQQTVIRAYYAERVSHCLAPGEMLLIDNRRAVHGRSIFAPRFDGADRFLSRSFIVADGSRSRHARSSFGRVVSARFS

GlbB = target: T5, GlbB (Caldimonas brevitalea, UniProt A8KCI8); experiment: 4-hydroxylation; assay type: biochemical; conditions: alpha-ketoglutarate, Fe(II)
T5 sequence (A8KCI8 1-286): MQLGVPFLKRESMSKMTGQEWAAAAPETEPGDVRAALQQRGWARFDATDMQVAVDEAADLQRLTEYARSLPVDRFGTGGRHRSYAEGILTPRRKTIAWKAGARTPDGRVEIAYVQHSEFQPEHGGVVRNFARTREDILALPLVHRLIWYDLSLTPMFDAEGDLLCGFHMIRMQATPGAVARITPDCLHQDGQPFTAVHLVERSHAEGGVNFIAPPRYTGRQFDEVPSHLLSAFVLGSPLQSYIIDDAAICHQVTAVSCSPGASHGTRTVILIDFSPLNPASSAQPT

GetF [2] = target: T2, GetF; experiment: C3 hydroxylation, product isolated after Boc protection; assay type: cell-based; conditions: alpha-ketoglutarate, Fe(II)

## NC(=O)NCCC[C@H](N)C(=O)O [L-Cit]
GetI
  preparative-scale 4-hydroxylation: Biocatalytic hydroxylation of L-Pip and L-Cit was performed on preparative scale with GetF and GetI

## O=C(O)[C@@H]1CCCCN1 [L-Pip]
GetF [1]
  preparative-scale hydroxylation: Biocatalytic hydroxylation of L-Pip and L-Cit was performed on preparative scale with GetF and GetI

## CC(C)C[C@H](N)C(=O)O [L-leucine]
GriE
  LCMS of C5 hydroxylation: GriE revealed a highly active enzyme that is capable of hydroxylating L-leucine

## NCCCC[C@H](N)C(=O)O [L-lysine]
KDO1
  gram-scale 3-hydroxylation in E. coli lysate: optimizing the biocatalytic hydroxylation with lysates of E. coli expressing KDO1
GlbB
  4-hydroxylation: GlbB was shown to be a highly efficient enzyme capable of hydroxylating L-lysine

## C[C@H]1CCN[C@@H]1C(=O)O [compound 15, proline derivative 15]
GetF [2]
  C3 hydroxylation, product isolated after Boc protection: The final C3 hydroxylation was performed with GetF
